Laboratory results from patent publication US8735414B2 (priority 2009, dated 2014).

What was measured:
[1] = test system: bicistronic HCV replicon (replicon RNA, GenBank Accession No. AJ242654); assay: HCV Replicon Assay; assay type: cell-based; conditions: Hepatitis C virus, 72 h, read-out: Replicon IC50

Row | Structure (SMILES) | IC50 [1] [nM] | melting point [°C]
1 | CC(C)(C)S(=O)(=O)Nc1ccc(-c2c(C(N)=O)c3c(F)cc(C4CC4)cc3n2C2CCCCC2)cn1 [compound 1088, 2-{6-[(tert-butylsulfonyl)amino]pyridin-3-yl}-1-cyclohexyl-6-cyclopropyl-4-fluoro-1H-indole-3-carboxamide] | < 500 | 290 to 294
2 | Cc1cc2c(cc1F)c(C(=O)O)c(-c1ccc(S(=O)(=O)N[C@@H](C)C(F)(F)F)cn1)n2C1CCC1 [compound 793, 1-cyclobutyl-5-fluoro-6-methyl-2-(5-{[(2S)-1,1,1-trifluoropropan-2-yl]sulfamoyl}pyridin-2-yl)-1H-indole-3-carboxylic acid] | < 500 | 234 to 240
3 | COc1cc2c(cc1F)c(C#N)c(-c1ccc(S(=O)(=O)NC(C)C)cn1)n2C1CCC1 [compound 101, 6-(3-cyano-1-cyclobutyl-5-fluoro-6-methoxy-1H-indol-2-yl)-N-(propan-2-yl)pyridine-3-sulfonamide] | < 500 | 234 to 237
4 | Cc1cc2c(cc1F)c(C#N)c(-c1ncc(S(=O)(=O)N[C@@H](C)C(F)(F)F)cc1C)n2C1CCCC1 [compound 837, 6-(3-cyano-1-cyclopentyl-5-fluoro-6-methyl-1H-indol-2-yl)-5-methyl-N-[(2S)-1,1,1-trifluoropropan-2-yl]pyridine-3-sulfonamide] | < 500 | 237 to 242
5 | CCc1cc2c(cc1F)c(C#N)c(-c1ccc(S(=O)(=O)N[C@@H](C)C(F)(F)F)cn1)n2-c1cnccn1 [compound 929, 6-[3-cyano-6-ethyl-5-fluoro-1-(pyrazin-2-yl)-1H-indol-2-yl]-N-[(2S)-1,1,1-trifluoropropan-2-yl]pyridine-3-sulfonamide] | < 500 | 225 to 229
6 | COc1cc2c(C#N)c(-c3ccc(S(=O)(=O)N[C@H](C)C(F)(F)F)cn3)n(C3CCCC3)c2cc1C [compound 694, 6-(3-cyano-1-cyclopentyl-5-methoxy-6-methyl-1H-indol-2-yl)-N-[(2R)-1,1,1-trifluoropropan-2-yl]pyridine-3-sulfonamide] | 2000 to 5000 | 210.5 to 211
7 | CC(C)Cn1c(-c2ccc(S(=O)(=O)N[C@@H](C)C(F)(F)F)cn2)c(C#N)c2cc(F)c(OC(F)F)cc21 [compound 937, 6-[3-cyano-6-(difluoromethoxy)-5-fluoro-1-(2-methylpropyl)-1H-indol-2-yl]-N-[(2S)-1,1,1-trifluoropropan-2-yl]pyridine-3-sulfonamide] | < 500 | 130 to 134
8 | Cc1cc2c(C#N)c(-c3ccc(S(=O)(=O)NC(CF)CF)cn3)n(C3CCCC3)c2cc1Cl [compound 521, 6-(6-chloro-3-cyano-1-cyclopentyl-5-methyl-1H-indol-2-yl)-N-(1,3-difluoropropan-2-yl)pyridine-3-sulfonamide] | < 500 | 217.5 to 218
9 | CC(C)NS(=O)(=O)c1cnc(-c2c(C#N)c3cc(F)ccc3n2C(C)C)nc1 [compound 123, 2-[3-cyano-5-fluoro-1-(propan-2-yl)-1H-indol-2-yl]-N-(propan-2-yl)pyrimidine-5-sulfonamide] | < 500 | 192 to 197
10 | Cc1cc2c(cc1F)c(C(N)=O)c(-c1ccc(S(=O)(=O)N[C@H](C)C(F)(F)F)cn1)n2C1CCCCC1 [compound 716, 1-cyclohexyl-5-fluoro-6-methyl-2-(5-{[(2R)-1,1,1-trifluoropropan-2-yl]sulfamoyl}pyridin-2-yl)-1H-indole-3-carboxamide] | < 500 | 272 to 276
11 | C[C@@H](NS(=O)(=O)c1ccc(-c2c(C#N)c3ccc(CF)cc3n2C2CCC2)nc1)C(F)(F)F [compound 319, 6-[3-cyano-1-cyclobutyl-6-(fluoromethyl)-1H-indol-2-yl]-N-[(2R)-1,1,1-trifluoropropan-2-yl]pyridine-3-sulfonamide] | 500 to 2000 | 200 to 213
